In patent publication US11642366B2, “Methods for preventing a serious health consequence and/or tissue damage after exposure to ionizing radiation and/or chemotherapy” (GLYCOMIRA THERAPEUTICS, INC., priority 2018, dated 2023):

Tests used:
[1] = test system: ROM (radiation induced oral mucositis) in the tongue; assay: Study (1): single dose x-ray irradiation induced ROM, necropsy and histology of the tongue; format: in vivo, mouse (BDF1 male); details: 30 mg/kg SQ once daily day -2 to 7
Excerpt: Modified hyaluronan (referred to herein as GM-1111) used to treat the animals is a sulfated hyaluronan methylated at the primary C-6 hydroxyl position of an N-acetyl-glucosamine residue and having a molecular weight of approximately 5.5 kDa.
Approximately 7-8 weeks of old male BDF1 (B6D2F1) mice were purchased from Charles River Laboratories (MA). These animals were housed in a room with fully controlled environment (temperature, humidity, and light/dark cycle). The feed and water were freely accessible to all animals throughout the entire study period. All animals were acclimatized for one week prior to the irradiation and they were approximately 8-10 weeks old at the time of the study. The experimental protocol (16-07008) was approved by the University of Utah Institutional Animal Care and Use Committee (IACUC). […]
(§1) Body weights of the animals were measured every other day from 2 days prior to the first irradiation day (day 0). Clinical signs were monitored every day during the entire experimental period. […]
Histological observations were graded for each category and the sum of these grades was used to designate the severity of each sample. The resulting severity scores from all irradiation groups were analyzed with Kruskal-Wallis test followed by Dunnett-type multiple comparison test using nparcomp package. […]

myeloperoxidase (MPO) = assay: Study (1): tissue concentrations of myeloperoxidase (MPO) in tongue homogenate by ELISA; format: in vivo, mouse (BDF1 male); details: 30 mg/kg SQ once daily day -2 to 7; 20 Gy; day 8; vehicle/irradiated 50%
Excerpt: Prior to the x-ray irradiation, all animals except the healthy control group were gently guided into a restrainer for short durations. This behavioral training was held once daily for two days and it was designed to reduce potential stresses on the animals during the once daily irradiation session. For head-only irradiation, the restrainers containing the animals were shielded with a lead block that had rectangular holes to expose the head. X-rays were generated by RS2000 Biological Research Irradiator (Rad Source Technologies, GA) with parameters set as 160 kV/25 mA. For study (1), the animals were divided into 4 groups (10 mice for each group)—vehicle (phosphate buffered saline) treated healthy, vehicle treated ROM, GM-1111 treated ROM, and HA treated ROM. […]
as §1
All tongue samples were thawed on ice prior to homogenization. […] The total protein concentration of the supernatant was measured for each sample using the Pierce™ Protein Assay kit. Tissue concentrations of IL-6 and myeloperoxidase (MPO) were then determined with commercially available ELISA kits: IL-6 (BioLegend, CA) and MPO (R&D Systems, MN). […]

Substance: Hyaluronic acid [HA]
- Overall effect against ROM (necropsy, MPO, histology) ([1]; 20 Gy): did not show any measurable therapeutic benefits
- Ulcerative lesions in the tongue at necropsy (Toluidine Blue staining) ([1]; 20 Gy head-only x-ray on day 0, necropsy day 8): severe ulcerative lesions in the tongue similar to the vehicle treated animals
- Animals with higher than normal range of MPO in the tongue (myeloperoxidase (MPO)): about 70%
